Reference: publication PMC6212778, “Site-specific amino acid substitution in dodecameric peptides determines the stability and unfolding of c-MYC quadruplex promoting apoptosis in cancer cells” (Nucleic Acids Research, 2018)
“Also recorded” adds a separate entry of the source.

Columns and labels:
[1] = system: Nucleolin at c-MYC-NHE III1 in MCF-7 cells; test: ChIP, Nucleolin occupancy at c-MYC-NHE III1; assay type: cell-based, human; conditions: MCF-7, 24 h, ChIP-qPCR versus IgG control
Description: (§1) Chromatin immunoprecipitation studies are conducted to monitor the promoter occupancies of different transcription factors (Sp1, NM23-H2 and Nucleolin) and RNA polymerase II (RNAPII) on the region encompassing c-MYC-NHE III1 ([69]). We have grown MCF-7 cells in 10-cm^2 culture flask at a density of 1 × 10^6 cells per well and treated with the synthetic peptides (FK13, KR12A, KR12B, and KR12C) for 24 hours. Cells are cross-linked with 1% formaldehyde at room temperature for 10 min and the reaction is stopped by 0.125 M glycine at room temperature for 10 min. Fixed cells are lysed and sonicated to yield DNA fragments of 200–500 bp. ChIP-grade antibodies (NM23-H2 (L-15) Antibody (sc-14790, Santa Cruz), and Anti-Nucleolin antibody [4E2]-ChIP Grade (Abcam)), Anti Sp1 antibody (Sigma), and Rpb1 (RNAPII subunit b1) CTD (C-terminal domain) 4H8 antibody are added to the sonicated chromatin and incubated overnight at 4°C. Then, 10 μl protein A magnetic beads (Dynal, Invitrogen), previously washed in RIPA buffer are added to the samples and bead–protein complexes are washed thrice with RIPA buffer and twice with TE buffer. The genomic DNA is eluted for 2 h at 68°C in complete elution Buffer (20 mM Tris, pH 7.5, 5 mM EDTA, 50 mM NaCl, 1% SDS and 50 μg/ml proteinase K) and further combined with the DNA eluted from second elution for 10 min at 68°C in 100 μl of elution buffer (20 mM Tris, pH 7.5, 5 mM EDTA and 50 mM NaCl). ChIP-isolated DNA is purified using MinElute Purification kit (Qiagen) and is amplified by PCR (Polymerase Chain Reaction) reactions using forward and reverse primers ([70]) (Supplementary Table S4) specific to the quadruplex-enriched regions at c-MYC promoter and Phusion® High-Fidelity PCR Kit (NEB). Anti-rabbit IgG is employed for mock immunoprecipitation (Negative control).

[2] = system: VEGF-A promoter (VEGF-A-GQ) in MCF-7 cells; test: Dual-luciferase assay, VEGF-A promoter with VEGF-A-GQ; assay type: cell-based, human; conditions: MCF-7, 24 h, peptide 0–60 μM
Description: (§2) MCF-7 cells are sub-cultured into 24-well microtiter plates at a cell density of 1 × 10^5 cells/well. Reporter constructs (c-MYC, BCL-2, KRAS and VEGF-A) (500 ng) with and/or without the G-quadruplex scaffolds triggering the expression of Renilla luciferase are co-transfected with 50 ng of pGL3-control vectors (Promega) (used as internal control), encoding firefly luciferase into MCF-7 cells using Lipofectamine® 3000 transfection reagent (Thermo-Fisher Scientific) following manufacturer's recommendations (Supplementary information Section 1). Twenty four hours post-transfection, cells are treated with peptides (FK13, KR12A, KR12B, KR12C, KR12D and KR12E) at an increasing concentration gradient.
(§3) Dual-luciferase assays are performed to examine the intracellular selectivity of peptides for c-MYC quadruplex isomers (Pu27, Myc22 and Pu19) over other oncogenic quadruplexes (BCL-2, VEGF-A and KRAS) of different topologies. The role of peptide-quadruplex complex in oncogene promoter activation is investigated in contrast to the GQ-null promoter constructs into MCF-7 cells ([67]). After 24 h of peptide treatment, cells are washed and lysed into 100 μl 1× Passive lysis buffer (PLB) for 15 min at room temperature. Renilla and firefly Luciferase activities in 25 μl lysate are quantified by Dual-Luciferase® reporter assay system (Promega) as per manufacturer's recommendations. Renilla luciferase enzyme activity is normalized to that of the firefly luciferase activity and luminescence of the peptide-treated samples are normalized to the untreated ones, which yield the fold induction values for Renilla activities by different quadruplex structures in presence and absence of synthetic peptides. Luminescence of each sample is detected in GloMax® 20/20 Single-Tube Luminometer (Promega) in triplicates and averaged from three independent experiments.

[3] = system: Sp1 at c-MYC-NHE III1 in MCF-7 cells; test: ChIP, Sp1 occupancy at c-MYC-NHE III1; assay type: cell-based, human; conditions: MCF-7, 24 h, ChIP-qPCR versus IgG control
Description: as §1

[4] = system: c-MYC quadruplex Pu27; test: CD melting of free and peptide-bound Pu27; assay type: binding, human
Description: To understand the role of peptides (FK13, KR12A, KR12B, KR12C, KR12D and KR12E) in stabilizing native and truncated isomers of c-MYC G-quadruplex, we have performed temperature-driven CD melting experiments for free and peptide-bound complexes in JASCO-J815 CD spectrometer. We have gradually titrated the peptides into 10 μM of putative quadruplexes and acquired the spectra after 5 min of peptide addition to allow complex formation and equilibration. Samples are heated from 20 to 95°C having the temperature gradient and the delay time of 2.5°C/min and 150 s respectively. Since the quadruplexes unfold at higher temperatures and revert back to their initial conformations upon renaturation, we have assumed a ‘two-state transition’ model (folded and unfolded) to analyze the melting curves and estimated the melting temperatures (Tm) by fitting the data points into sigmoidal curves (Supplementary information Section 1).

[5] = system: c-MYC promoter (Pu27-GQ) in MCF-7 cells; test: Dual-luciferase assay, c-MYC promoter with Pu27-GQ; assay type: cell-based, human; conditions: for c-MYC promoter activity, fold repression: MCF-7, 24 h peptide treatment, 60 μM, Renilla/firefly normalised; for c-MYC promoter activity: MCF-7, 24 h, peptide 0–60 μM
Description: as §2, §3

[6] = system: KRAS promoter (KRAS-GQ) in MCF-7 cells; test: Dual-luciferase assay, KRAS promoter with KRAS-GQ; assay type: cell-based, human; conditions: MCF-7, 24 h; for KRAS promoter activity: peptide 0–60 μM
Description: as §2, §3

[7] = 10 μM quadruplex, two-state model

Row | Substance | Nucleolin occupancy at c-MYC-NHE III1 [1] | VEGF-A promoter activity [2] | Sp1 occupancy at c-MYC-NHE III1 [3] | decrease of the Tm of Pu27 upon peptide binding [4, 7] | c-MYC promoter activity, fold repression [5] | KRAS promoter activity, fold inhibition ([6]; at higher concentration) | rise in the Tm of Pu27 upon peptide binding [4, 7] | c-MYC promoter activity [5] | KRAS promoter activity [6] | effect on thermal stability of Pu27 [4]
1 | N – KRIVQRIKKWLR – C [KR12A, dodecameric mutant peptide derived from FK13 / LL37] | did not significantly affect | significantly downregulate | slightly enriched | ~30 °C | ~2 fold | ~2.5 fold | – | – | – | –
2 | N – KRIVKLIKKWLR – C [KR12C] | depleted | no significant impact | depleted | – | – | – | 9 °C | selectively attenuated | no significant impact | –
3 | N – KRIVKRIKKWLR – C [KR12B, dodecameric mutant peptide derived from FK13 / LL37] | depleted the abundance | strongly inhibited | no role in Sp1 occupancy | – | – | – | – | selectively attenuated | inverse regulation | did not significantly induce thermal stability
4 | N – FKRIVQRIKDFLR – C [FK13] | no role | significantly downregulate; also recorded: strongly inhibited | no role | – | ~2 fold | – | – | – | – | –
